Here are results for 16 compounds from ChEMBL document CHEMBL1909046, “DrugMatrix in vitro pharmacology data”.

Usually IC50 stands for the concentration needed to halve the response being measured. For orientation: Ki means the dissociation constant of the complex between target and ligand, obtained from inhibition or displacement.

In data set [1] the target is cGMP-specific 3',5'-cyclic phosphodiesterase (Homo sapiens, UniProt O76074). Briefly: DRUGMATRIX: Phosphodiesterase PDE5 enzyme inhibition (substrate: [3H]cGMP + cGMP). The data set is classed as tissue-based. Conditions: platelet; Not Active = under 50% inhibition at 10 µM.
For data set [2], the target named is T1, Alpha-1A adrenergic receptor (Rattus norvegicus, UniProt P43140).
T1 sequence (P43140 whole entry): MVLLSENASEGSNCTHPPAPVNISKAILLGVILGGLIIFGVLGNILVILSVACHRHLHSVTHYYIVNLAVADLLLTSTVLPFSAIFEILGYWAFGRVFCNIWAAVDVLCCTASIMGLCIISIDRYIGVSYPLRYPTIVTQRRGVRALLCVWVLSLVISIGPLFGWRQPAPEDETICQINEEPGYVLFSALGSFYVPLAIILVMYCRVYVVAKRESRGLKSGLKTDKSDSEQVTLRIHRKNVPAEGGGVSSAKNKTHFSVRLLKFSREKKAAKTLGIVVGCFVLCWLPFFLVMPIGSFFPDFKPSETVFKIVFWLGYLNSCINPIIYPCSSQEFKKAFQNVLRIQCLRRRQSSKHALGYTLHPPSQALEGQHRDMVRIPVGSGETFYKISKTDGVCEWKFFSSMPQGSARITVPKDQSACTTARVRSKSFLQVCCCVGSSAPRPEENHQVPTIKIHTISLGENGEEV
Briefly: DRUGMATRIX: Alpha-1A adrenergic receptor radioligand binding (ligand: prazosin). The conditions noted are these: Not Active = under 50% inhibition at 10 µM. The class given is cell membranes, Wistar, Submaxillary gland, Membrane.

In data set [3] the target is T2, Cytochrome P450 1A2 (Homo sapiens, UniProt P05177). Note: in other assays of this panel Not Active means under 50% inhibition at 10 µM.
T2 sequence (P05177 whole entry): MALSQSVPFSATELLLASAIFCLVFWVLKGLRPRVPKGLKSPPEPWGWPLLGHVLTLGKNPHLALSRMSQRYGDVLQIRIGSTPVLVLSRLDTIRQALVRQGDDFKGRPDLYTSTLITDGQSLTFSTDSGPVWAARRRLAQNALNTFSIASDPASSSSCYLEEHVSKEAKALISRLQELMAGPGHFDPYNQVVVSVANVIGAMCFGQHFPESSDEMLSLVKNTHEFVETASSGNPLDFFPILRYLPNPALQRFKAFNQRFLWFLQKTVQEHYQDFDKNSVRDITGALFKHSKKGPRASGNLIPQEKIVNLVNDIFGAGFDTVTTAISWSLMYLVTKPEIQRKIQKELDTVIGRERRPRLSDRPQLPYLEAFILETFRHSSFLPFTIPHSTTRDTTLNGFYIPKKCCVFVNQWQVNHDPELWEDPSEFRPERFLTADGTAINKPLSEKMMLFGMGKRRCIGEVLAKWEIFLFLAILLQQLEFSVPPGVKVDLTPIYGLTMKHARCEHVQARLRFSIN
The conditions noted are these: bti-tn-5b1-4.

Data set [4] addresses T3, 5-hydroxytryptamine receptor 1A (Rattus norvegicus, UniProt P19327).
T3 sequence (P19327 whole entry): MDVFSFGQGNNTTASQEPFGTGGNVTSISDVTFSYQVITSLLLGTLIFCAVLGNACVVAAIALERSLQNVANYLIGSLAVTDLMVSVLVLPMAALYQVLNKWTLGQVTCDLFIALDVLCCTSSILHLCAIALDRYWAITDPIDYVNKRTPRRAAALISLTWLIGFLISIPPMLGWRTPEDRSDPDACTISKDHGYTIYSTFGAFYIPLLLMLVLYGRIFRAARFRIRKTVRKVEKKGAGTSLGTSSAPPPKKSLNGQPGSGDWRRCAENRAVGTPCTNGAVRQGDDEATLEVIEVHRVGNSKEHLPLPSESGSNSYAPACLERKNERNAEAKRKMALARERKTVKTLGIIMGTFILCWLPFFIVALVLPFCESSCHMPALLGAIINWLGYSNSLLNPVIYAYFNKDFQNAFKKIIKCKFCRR
The data set is classed as cell membranes, Membrane. Conditions: cho-k1.

Data set [5] is described as follows: DRUGMATRIX: Tumor Necrosis Factor (TNF), Non-Selective radioligand binding (ligand: [125I] TNF-alpha). The class given is cell membranes, Membrane. The conditions noted are these: u-937; Not Active = under 50% inhibition at 10 µM.
Data set [6] addresses D(1A) dopamine receptor (Homo sapiens, UniProt P21728). Briefly: DRUGMATRIX: Dopamine D1 radioligand binding (ligand: [3H] SCH-23390). The data set is classed as cell membranes, Membrane. The conditions noted are these: cho; Not Active = under 50% inhibition at 10 µM.
In data set [7] the target is Delta-type opioid receptor (Homo sapiens, UniProt P41143). The class given is cell membranes, HEK293, Membrane. Conditions: hek293. Note: in other assays of this panel Not Active means under 50% inhibition at 10 µM.
Data set [8] in a line: DRUGMATRIX: Sigma2 radioligand binding (ligand: [3H] Ifenprodil). The data set is classed as cell membranes, Rattus norvegicus, Wistar, Brain, Membrane. The conditions noted are these: Not Active = under 50% inhibition at 10 µM.

Sequence of D(1A) dopamine receptor (P21728 whole entry): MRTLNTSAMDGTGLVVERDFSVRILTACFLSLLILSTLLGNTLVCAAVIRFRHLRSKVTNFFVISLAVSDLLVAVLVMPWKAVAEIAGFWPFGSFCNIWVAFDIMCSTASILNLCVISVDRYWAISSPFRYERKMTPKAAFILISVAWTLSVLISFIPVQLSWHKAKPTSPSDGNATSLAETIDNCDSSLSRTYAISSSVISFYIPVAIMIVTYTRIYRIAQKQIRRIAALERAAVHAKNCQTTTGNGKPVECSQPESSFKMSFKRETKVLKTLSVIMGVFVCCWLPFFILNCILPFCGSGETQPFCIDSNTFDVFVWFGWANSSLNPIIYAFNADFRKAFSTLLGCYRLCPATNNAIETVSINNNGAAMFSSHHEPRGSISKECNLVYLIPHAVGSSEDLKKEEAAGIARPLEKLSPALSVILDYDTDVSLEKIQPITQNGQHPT
Sequence of Delta-type opioid receptor (P41143 whole entry): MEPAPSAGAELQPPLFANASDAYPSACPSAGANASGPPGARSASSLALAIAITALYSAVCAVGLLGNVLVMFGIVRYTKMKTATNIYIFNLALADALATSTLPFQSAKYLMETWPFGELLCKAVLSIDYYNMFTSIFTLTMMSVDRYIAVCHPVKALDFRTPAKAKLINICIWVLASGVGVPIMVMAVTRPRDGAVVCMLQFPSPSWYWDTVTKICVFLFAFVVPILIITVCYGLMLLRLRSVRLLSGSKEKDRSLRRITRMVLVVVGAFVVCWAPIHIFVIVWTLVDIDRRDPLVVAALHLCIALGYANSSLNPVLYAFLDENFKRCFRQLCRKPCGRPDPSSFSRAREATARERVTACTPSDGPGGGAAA

For `N=C(Nc1ccccc1)Nc1ccccc1`, the IC50 result in data set [1], in data set [2], in data set [3], in data set [4], in data set [5] and in data set [6] was “Not Active” throughout. Also, the results for the IC50 result in data set [7] and in data set [8] (read-out: IC50) were “Not Active” and 2.64 µM, respectively. The Ki result in data set [3] was “Not Active”; in data set [5], “Not Active”; in data set [8] (read-out: Ki), 1620 nM.
With `S=C=Nc1cccc2ccccc12` [1-NAPHTHYLISOTHIOCYANATE], the IC50 entry in data set [1], in data set [2], in data set [4], in data set [5], in data set [7] and in data set [8] was “Not Active” throughout. Besides, the Ki entry in data set [5] and in data set [8] was “Not Active” each time.
For the compound `O=C1CC2(CCCC2)CC(=O)N1CCCCN1CCN(c2ncccn2)CC1` [BUSPIRONE], the concentration for half-maximal inhibition (IC50) result in data set [1] was “Not Active”; in data set [3] it was “Not Active”; in data set [5], “Not Active”; in data set [6], “Not Active”; in data set [7], “Not Active”; in data set [8] (read-out: IC50), 3.38 µM. Further, the Ki result in data set [3] was “Not Active”; in data set [5] it was “Not Active”; in data set [8] (read-out: Ki), 2080 nM.
Take `O=NN(CCCl)C(=O)NCCCl` [CARMUSTINE]: the IC50 entry in data set [1], in data set [2], in data set [4], in data set [5], in data set [6] and in data set [7] was “Not Active” in each case. For the same compound, the IC50 result in data set [8] was “Not Active”. The Ki entry in data set [5] and in data set [8] was “Not Active” in each case.
For `CC1=C(C(=O)O)N2C(=O)[C@@H](NC(=O)[C@H](N)c3ccccc3)[C@H]2SC1` [CEPHALEXIN ANHYDROUS], the IC50 entry in data set [1], in data set [2], in data set [4], in data set [5], in data set [6] and in data set [7] was “Not Active” throughout. For the same compound, the IC50 entry in data set [8] is given as “Not Active”. For the same compound, the Ki entry in data set [5] and in data set [8] was “Not Active” each time.
As to `O=C(N[C@H](CO)[C@H](O)c1ccc([N+](=O)[O-])cc1)C(Cl)Cl` [CHLORAMPHENICOL], the IC50 entry in data set [1], in data set [2], in data set [4], in data set [5], in data set [6] and in data set [7] was “Not Active” in each case. Besides, the IC50 entry in data set [8] is listed as “Not Active”. In addition, the Ki entry in data set [5] and in data set [8] was “Not Active” each time.
For the compound `CCOC(=O)C(C)(C)Oc1ccc(Cl)cc1` [CLOFIBRATE], the IC50 entry in data set [1], in data set [2], in data set [4], in data set [5], in data set [6] and in data set [7] was “Not Active” in each case. Also, the IC50 result in data set [8] is “Not Active”. In addition, the Ki result in data set [5] and in data set [8] was “Not Active” each time.
Turning to `C[C@@H]1C[C@@H]([C@H](O)CC2CC(=O)NC(=O)C2)C(=O)[C@@H](C)C1` [CYCLOHEXIMIDE], the IC50 result in data set [1], in data set [2], in data set [4], in data set [5], in data set [6] and in data set [7] was “Not Active” each time. The IC50 entry in data set [8] is recorded as “Not Active”. Moreover, the Ki entry in data set [5] and in data set [8] was “Not Active” in each case.
Consider `C/C=C/C[C@@H](C)[C@@H](O)[C@H]1C(=O)N[C@@H](CC)C(=O)N(C)CC(=O)N(C)[C@@H](CC(C)C)C(=O)N[C@@H](C(C)C)C(=O)N(C)[C@@H](CC(C)C)C(=O)N[C@@H](C)C(=O)N[C@H](C)C(=O)N(C)[C@@H](CC(C)C)C(=O)N(C)[C@@H](CC(C)C)C(=O)N(C)[C@@H](C(C)C)C(=O)N1C` [CYCLOSPORINE], for which the IC50 result in data set [1], in data set [2], in data set [4], in data set [5], in data set [6] and in data set [7] was “Not Active” each time. Besides, the IC50 result in data set [8] was “Not Active”. The Ki result in data set [5] and in data set [8] was “Not Active” throughout.
For `COc1ccc2c(c1)[C@]13CCCC[C@@H]1[C@H](C2)N(C)CC3` [DEXTROMETHORPHAN], the IC50 result in data set [1], in data set [2], in data set [4], in data set [5], in data set [6] and in data set [7] was “Not Active” throughout. The IC50 entry in data set [8] is recorded as “Not Active”. Besides, the Ki entry in data set [5] and in data set [8] was “Not Active” each time.
Regarding `CN(C)c1ccc(C(=C2C=CC(=[N+](C)C)C=C2)c2ccc(N(C)C)cc2)cc1.[Cl-]` [GENTIAN VIOLET], the IC50 entry in data set [1], in data set [2], in data set [3], in data set [4], in data set [5] and in data set [7] was “Not Active” each time. Further, the IC50 result in data set [8] is “Not Active”. For the same compound, the Ki result in data set [3], in data set [5] and in data set [8] was “Not Active” throughout.
Turning to `NC(=O)NO` [HYDROXYUREA], the IC50 result in data set [1], in data set [2], in data set [4], in data set [5], in data set [6] and in data set [7] was “Not Active” throughout. Also, in data set [8], the IC50 result was “Not Active”. The Ki entry in data set [5] and in data set [8] was “Not Active” each time.
As to `CC(=O)Nc1cccc(O)c1` [METACETAMOL], the IC50 result in data set [1], in data set [2], in data set [4], in data set [5], in data set [6] and in data set [7] was “Not Active” each time. Besides, the IC50 entry in data set [8] is reported as “Not Active”. Also, the Ki entry in data set [5] and in data set [8] was “Not Active” each time.
As for `COc1ccc2cc([C@H](C)C(=O)O)ccc2c1` [NAPROXEN], the 50% inhibitory concentration (IC50) result in data set [2], in data set [4], in data set [5], in data set [6], in data set [7] and in data set [8] was “Not Active” in each case. Besides, the Ki result in data set [5] and in data set [8] was “Not Active” throughout.
`COC(=O)C1=C(C)NC(C)=C(C(=O)OCC(C)C)C1c1ccccc1[N+](=O)[O-]` (stereo not given) [NISOLDIPINE]: the IC50 entry in data set [1], in data set [2], in data set [4], in data set [5], in data set [6] and in data set [7] was “Not Active” in each case. Moreover, the IC50 result in data set [8] is given as “Not Active”. In addition, the Ki result in data set [5] and in data set [8] was “Not Active” throughout.
Turning to `CCn1cc(C(=O)O)c(=O)c2cc(F)c(N3CCN(C)CC3)cc21` [PEFLOXACIN], the IC50 result in data set [1], in data set [2], in data set [4], in data set [5], in data set [6] and in data set [7] was “Not Active” throughout. Also, in data set [8], the IC50 result was “Not Active”. In addition, the Ki result in data set [5] and in data set [8] was “Not Active” each time.
